Results reported in patent US9758520B2, “Substituted fused heterocycles as GPR119 modulators for the treatment of diabetes, obesity, dyslipidemia and related disorders” (SANOFI, priority 2014, dated 2017).

Target: T1, human GPR119 (Homo sapiens, UniProt Q8TDV5)
T1 construct: expressed in transfected cells
T1 sequence (Q8TDV5 1-335): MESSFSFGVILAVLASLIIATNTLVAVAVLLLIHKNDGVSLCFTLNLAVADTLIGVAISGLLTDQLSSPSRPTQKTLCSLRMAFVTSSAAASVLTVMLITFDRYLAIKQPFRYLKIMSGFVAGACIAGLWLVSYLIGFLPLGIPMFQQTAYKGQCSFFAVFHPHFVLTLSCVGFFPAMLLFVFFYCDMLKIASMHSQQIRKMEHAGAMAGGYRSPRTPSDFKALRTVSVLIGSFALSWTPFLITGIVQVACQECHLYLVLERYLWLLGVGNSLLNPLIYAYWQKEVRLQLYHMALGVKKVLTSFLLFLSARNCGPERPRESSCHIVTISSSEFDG
Test: Functional cellular assay measuring GPR119-mediated cAMP release (HTRF) in HEK-293 cells stably expressing recombinant GPR119
Assay type: cell-based
Conditions: cAMP response, cell line expressing human GPR119 (HEK-293), 30 minutes at room temperature
Procedure: Functional Cellular Assays Measuring GPR119-Mediated cAMP Release
Compounds of the invention, which are agonists of GPR119, were characterized by functional assays measuring the cAMP response of HEK-293 cell lines stably expressing recombinant GPR119 from man, mouse or rat, or by using a hamster cell line HIT-T15 expressing GPR119 endogenously. The cAMP content was determined using a kit based on homogenous time-resolved fluorescence (HTRF) from Cisbio Corp. (cat. no. 62AM4PEC). For preparation, cells were split into T175 culture flasks and grown to near confluency in medium (DMEM/10% FCS for HEK-293 cells, and F-12K medium/10% horse serum/2.5% FCS for HIT-T15 cells, respectively). Medium was then removed and cells washed with PBS lacking calcium and magnesium ions, followed by proteinase treatment with accutase (Sigma-Aldrich, cat. no. A6964). Detached cells were washed and resuspended in assay buffer (1×HBSS; 20 mM HEPES, 0.1% BSA, 2 mM IBMX) and cellular density determined. They were then diluted to 400000 cells/mL and 25 μL-aliquots dispensed to the wells of 96-well plates. For measurement, 25 μL of test compound in assay buffer was added and incubated for 30 minutes at room temperature. After addition of HTRF reagents diluted in lysis buffer, the plates were incubated for 1 hour, followed by measuring the fluorescence ratio at 665 vs. 620 nm. Potency of the agonists was quantified by determining the concentrations that caused 50% of the maximal response/activation (EC50). See Table 3 for exemplary data obtained using the cell line expressing human GPR119.

Row | SMILES | EC50 [nM]
1 | NC(=O)Cn1nc2ccc(N3CC[C@@H](Oc4ccc(OCC5CC5)nc4)C3=O)cc2n1 [Example 2-05, 2-[5-[(3R)-3-[[6-(cyclopropylmethoxy)-3-pyridyl]oxy]-2-oxo-pyrrolidin-1-yl]benzotriazol-2-yl]acetamide] | 196
2 | Cn1nc2c(F)cc(N3CC[C@@H](Oc4ccc(OCC5CC5)nc4)C3=O)cn2c1=O [Example 1-27, 6-[(3R)-3-[[6-(cyclopropylmethoxy)-3-pyridyl]oxy]-2-oxo-pyrrolidin-1-yl]-8-fluoro-2-methyl-[1,2,4]triazolo[4,3-a]pyridin-3-one] | 1870
3 | CN(C)C(=O)Cn1nc2ccc(N3CC[C@@H](Oc4ccc(Oc5ccc(F)cc5)nc4)C3=O)cn2c1=O [Example 1-11, 2-[6-[(3R)-3-[[6-(4-fluorophenoxy)-3-pyridyl]oxy]-2-oxo-pyrrolidin-1-yl]-3-oxo-[1,2,4]triazolo[4,3-a]pyridin-2-yl]-N,N-dimethyl-acetamide] | 206
4 | O=C1[C@H](Oc2ccc(OCC3CC3)nc2)CCN1c1ccc2nc(C3CC3)nn2c1 [Example 1-01, (3R)-3-[[6-(Cyclopropylmethoxy)-3-pyridyl]oxy]-1-(2-cyclopropyl-[1,2,4]triazolo[1,5-a]pyridin-6-yl)pyrrolidin-2-one] | 11300
5 | O=C(O)Cn1cc2ccc(N3CC[C@@H](Oc4ccc(OCC5CC5)nc4)C3=O)cc2n1 [Example 1-16, 2-[6-[(3R)-3-[[6-(cyclopropylmethoxy)-3-pyridyl]oxy]-2-oxo-pyrrolidin-1-yl]indazol-2-yl]acetic acid] | 12000
6 | CN(C)C(=O)Cn1nc2ccc(N3CC[C@@H](Oc4ccc(OCC(F)(F)F)nc4)C3=O)cn2c1=O [Example 1-30, N,N-dimethyl-2-[3-oxo-6-[(3R)-2-oxo-3-[[6-(2,2,2-trifluoroethoxy)-3-pyridyl]oxy]pyrrolidin-1-yl]-[1,2,4]triazolo[4,3-a]pyridin-2-yl]acetamide] | 203
7 | O=C1[C@H](Oc2ccc(OCC3CC3)nc2)CCN1c1ccc2nncn2c1 [Example 1-05, (3R)-3-[[6-(cyclopropylmethoxy)-3-pyridyl]oxy]-1-([1,2,4]triazolo[4,3-a]pyridin-6-yl)pyrrolidin-2-one] | 7990
8 | COC(=O)Cn1nc2c(F)cc(N3CC[C@@H](Oc4ccc(OCC5CC5)nc4)C3=O)cn2c1=O [Example 1-28, methyl 2-[6-[(3R)-3-[[6-(cyclopropylmethoxy)-3-pyridyl]oxy]-2-oxo-pyrrolidin-1-yl]-8-fluoro-3-oxo-[1,2,4]triazolo[4,3-a]pyridin-2-yl]acetate] | 70
9 | CN(C)C(=O)Cn1nc2c(F)cc(N3CC[C@@H](Oc4ccc(OCC5CC5)nc4)C3=O)cn2c1=O [Example 2-01, 2-[6-[(3R)-3-[[6-(cyclopropylmethoxy)-3-pyridyl]oxy]-2-oxo-pyrrolidin-1-yl]-8-fluoro-3-oxo-[1,2,4]triazolo[4,3-a]pyridin-2-yl]-N,N-dimethyl-acetamide] | 126
10 | O=C(O)Cc1nc2ccc(N3CC[C@@H](Oc4ccc(OCC5CC5)nc4)C3=O)cn2n1 [Example 1-06, 2-[6-[(3R)-3-[[6-(cyclopropylmethoxy)-3-pyridyl]oxy]-2-oxo-pyrrolidin-1-yl]-[1,2,4]triazolo[1,5-a]pyridin-2-yl]acetic acid] | 17300
11 | O=C(O)Cn1nc2ccc(N3CC[C@@H](Oc4ccc(OCC5CC5)nc4)C3=O)cn2c1=O [Example 1-24, 2-[6-[(3R)-3-[[6-(cyclopropylmethoxy)-3-pyridyl]oxy]-2-oxo-pyrrolidin-1-yl]-3-oxo-[1,2,4]triazolo[4,3-a]pyridin-2-yl]acetic acid] | 6170
